Biological target: T1, Kv3.1 potassium channel (Kv3.1b) (Rattus norvegicus, UniProt P25122)
T1 sequence (P25122 1-585): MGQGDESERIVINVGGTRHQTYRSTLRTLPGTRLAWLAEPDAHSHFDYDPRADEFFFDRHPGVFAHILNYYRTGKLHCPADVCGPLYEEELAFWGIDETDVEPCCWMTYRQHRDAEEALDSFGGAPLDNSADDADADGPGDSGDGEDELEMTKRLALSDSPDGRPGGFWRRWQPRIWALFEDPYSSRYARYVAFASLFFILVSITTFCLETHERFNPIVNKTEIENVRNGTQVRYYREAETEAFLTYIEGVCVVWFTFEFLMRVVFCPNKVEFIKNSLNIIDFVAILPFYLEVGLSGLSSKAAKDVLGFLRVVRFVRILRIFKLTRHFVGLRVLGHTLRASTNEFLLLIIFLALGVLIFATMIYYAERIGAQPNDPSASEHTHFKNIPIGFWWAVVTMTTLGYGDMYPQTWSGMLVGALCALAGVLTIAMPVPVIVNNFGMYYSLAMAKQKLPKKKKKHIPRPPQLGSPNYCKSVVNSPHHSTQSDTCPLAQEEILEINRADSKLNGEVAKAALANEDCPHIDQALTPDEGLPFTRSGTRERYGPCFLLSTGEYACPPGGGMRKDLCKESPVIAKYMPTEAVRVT
Test: whole-cell patch clamp of transfected CHO cells
Format: cell-based

IC50: 9.43 µM
Compound: Fc1ccc([C@@H]2CCNC[C@H]2COc2ccc3c(c2)OCO3)cc1 [paroxetine]

Source: article PMC5746514 (The Korean Journal of Physiology & Pharmacology : …, 2017)
